The record followed here is US11865176B2, “Compositions and methods of modulating anti-tumor immunity” (Dana-Farber Cancer Institute, Inc., priority 2016, dated 2024).

The subject of this assay is PD-1-overexpressing Jurkat cells. The assay can be described thus: Small molecule screen: IL2 secretion (AlphaLISA) from stimulated PD-1-overexpressing Jurkat cells. It counts as cell-based, human. Particulars: 3.3 μM compound; for Zscore_1 / Zscore_2: IL2 level, α-CD3/α-CD28/α-PD-1 beads; for Zscore_1: replicate 1; for Zscore_2: replicate 2; for Zscore_AVG: average of replicate Z scores. The method, then:
PD-1-overexpressing Jurkat cells were plated at a concentration of 100,000 cells/well in a total volume of 80 μl. […] Dynabeads conjugated to α-CD3, α-CD28, and α-PD-1 antibodies were added in 20 for a final assay volume of 100 with a final compound concentration of 3.3 μM and an 8:1 bead:cell ratio. Beads were conjugated to α-CD3/α-CD28/control IgG and added to wells containing DMSO-treated cells as a positive control, while beads conjugated to α-CD3/α-CD28/α-PD1 were added to wells containing DMSO-treated cells as a negative control. Supernatants from each well were analyzed for IL2 levels by AlphaLISA (Perkin Elmers) according to the manufacturer's protocol. Average and standard deviation values were calculated from the PD-1 controls (DMSO-treated cells stimulated with α-CD3/α-CD28/α-PD-1 beads); hits were defined as compounds scoring at least 3 standard deviations from the mean of the controls.
In addition to known negative regulators of IL-2 production (e.g. glycogen synthase kinase-3α/β (GSK3α/β) (24,25)), this screen identified cyclin-dependent kinases 4 and 6 inhibitors (CDK4/6i) as top hits (Table 1).
(Bead proximity is the source of the signal in Alpha formats.)

Several values for one entry are separate records, joined by “and”; a condition that tells them apart may be missing. Identical values can stand only once.

`CC[C@H](CO)Nc1nc(NCc2ccc(-c3ccccn3)cc2)c2ncn(C(C)C)c2n1` (single isomer, unassigned) [CR8, (R)-Isomer] showed a Zscore_1 of −9.662, a Zscore_2 of −6.961 and a Zscore_AVG of −8.311.
In the case of `CC[C@@H](CO)Nc1nc(NCc2ccc(-c3ccccn3)cc2)c2ncn(C(C)C)c2n1` (single isomer, unassigned) [CR8, (S)-Isomer], the Zscore_1 is listed as −10.2, the Zscore_2 is given as −10.59 and the Zscore_AVG is recorded as −10.39.
Molecule `CC[C@@H](CO)Nc1nc(NCc2ccccc2)c2ncn(C(C)C)c2n1` (single isomer, unassigned) [Roscovitine, (S)-Isomer] returned a Zscore_1 of −2.928, a Zscore_2 of −1.279 and a Zscore_AVG of −2.103.
Consider `O=C1Cc2c([nH]c3ccc(Br)cc23)-c2ncccc2N1` [1-Azakenpaullone], for which the Zscore_1 was 0.418, the Zscore_2 amounted to 1.913 and the Zscore_AVG is reported as 1.165.
In the case of `Cc1ncc2ccccc2c1C#N` [4-Cyano-3-methylisoquinoline], the Zscore_1 is given as −0.7566, the Zscore_2 was found to be 0.1385 and the Zscore_AVG is −0.3091.
Consider `Nc1ncnc2c1c(I)cn2[C@@H]1O[C@H](CO)[C@@H](O)[C@H]1O` [5-Iodotubercidin], for which the Zscore_1 is −4.799, the Zscore_2 is −6.213 and the Zscore_AVG is −5.506.
On to `N#CC(C#N)=C(N)/C(C#N)=C/c1ccc(O)cc1` [AG 112], for which the Zscore_1 was −1.54, the Zscore_2 is on record as −3.816 and the Zscore_AVG is recorded as −2.678.
The matching figures for `N#C/C(=C/c1ccc(O)c(O)c1)C(=O)NCc1ccccc1` [AG 490]: −2.645, 0.2008 and −1.222.
`CC(C)(C)c1cc(C=C(C#N)C#N)cc(Br)c1O` [AG 1024]: the Zscore_1 was 0.3395, the Zscore_2 worked out at 0.506 and the Zscore_AVG stood at 0.4228.
The matching figures for `Cc1cc2ncc(-c3ccccc3)nc2cc1C` [AG 1295]: −0.2372, −3.097 and −1.667.
Consider `COc1cc2ncc(-c3ccccc3)nc2cc1OC` [AG 1296], for which the Zscore_1 is on record as 0.5275, the Zscore_2 is −0.8562 and the Zscore_AVG was −0.1643.
The molecule `COc1cc2ncnc(Nc3cccc(Cl)c3)c2cc1OC` [AG 1478] registered a Zscore_1 of −1.129, a Zscore_2 of −1.216 and a Zscore_AVG of −1.173.
Consider `Cc1nc2cc3nc(-c4cccs4)cnc3cc2n1C` [AGL 2043], for which the Zscore_1 is recorded as −0.2488, the Zscore_2 amounted to 1.253 and the Zscore_AVG came out at 0.5019.
As to `c1cc(-c2cnn3cc(-c4ccc(OCCN5CCCCC5)cc4)cnc23)ccn1` [AMPK Inhibitor, Compound C], the Zscore_1 is reported as −2.877, the Zscore_2 is given as 1.296 and the Zscore_AVG is reported as −0.7902.
In the same order, the values of `O=c1cc(-c2cccc3c2Sc2ccccc2S3)oc(N2CCOCC2)c1` [ATM Kinase Inhibitor] are 1.379, 4.382 and 2.881.
`O=C(NC(NC(=S)Nc1ccc(F)c([N+](=O)[O-])c1)C(Cl)(Cl)Cl)C(c1ccccc1)c1ccccc1` (stereo not drawn) [ATM/ATR Kinase Inhibitor] gave a Zscore_1 of −1.798, a Zscore_2 of −1.073 and a Zscore_AVG of −1.436.
On to `Cl.Cl.Nc1ncnc2nc(-c3ccc(N4CCOCC4)nc3)cc(-c3cccc(Br)c3)c12` [Adenosine Kinase Inhibitor], for which the Zscore_1 amounted to 0.3983, the Zscore_2 came to 0.5922 and the Zscore_AVG is listed as 0.4953.
`CC[n+]1c(/C=C/N(C)c2ccccc2)n(-c2ccccc2)c2ccc(-c3nc4ccccc4s3)cc21.[I-]` [Akt Inhibitor IV] had a Zscore_1 of −5.269, a Zscore_2 of −6.844 and a Zscore_AVG of −6.057.
As to `O=c1[nH]c2ccccc2n1C1CCN(Cc2ccc(-c3nc4cc5nc[nH]c5cc4nc3-c3ccccc3)cc2)CC1` [Akt Inhibitor VIII, Isozyme- Selective, Akti-1/2], the Zscore_1 turned out to be 1.673, the Zscore_2 was determined as 1.052 and the Zscore_AVG was found to be 1.362.
The molecule `CCN(CC)CCCCN1c2ccccc2Oc2ccc(Cl)cc21` [Akt Inhibitor X] gave a Zscore_1 of 2.25, a Zscore_2 of 6.382 and a Zscore_AVG of 4.316.
On to `CCCCc1c(-c2ccc(O)cc2)[nH]c2nccnc12` [Aloisine A, RP107], for which the Zscore_1 is listed as −3.301, the Zscore_2 was −1.322 and the Zscore_AVG is recorded as −2.311.
As to `CCCCc1c(-c2ccc(OC)cc2)[nH]c2nccnc12` [Aloisine, RP106], the Zscore_1 is listed as −0.8722, the Zscore_2 is −4.242 and the Zscore_AVG is −2.557.
The matching figures for `N#CCCc1ccc2c(c1)-c1[nH]c3ccc([N+](=O)[O-])cc3c1CC(=O)N2` [Alsterpaullone, 2-Cyanoethyl]: −5.269, −7.447 and −6.358.
`O=C1Cc2c([nH]c3ccc([N+](=O)[O-])cc23)-c2ccccc2N1` [Alsterpaullone] came in with a Zscore_1 of −0.7783, a Zscore_2 of −3.341 and a Zscore_AVG of −2.06.
Molecule `CC(C)[C@H](CO)Nc1nc(Nc2cc(N)cc(Cl)c2)c2ncn(C(C)C)c2n1` [Aminopurvalanol A] showed a Zscore_1 of −3.687, a Zscore_2 of −3.638 and a Zscore_AVG of −3.662.
In the case of `O=C1NC(=O)c2c1c1c3ccccc3[nH]c1c1[nH]c3ccccc3c21` [Arcyriaflavin A, Synthetic], the Zscore_1 amounted to 3.889, the Zscore_2 is 5.674 and the Zscore_AVG was found to be 4.782.
Take `O=C(Nc1cccc(Nc2nccc(Nc3cccc(C(F)(F)F)c3)n2)c1)C1CC1` [Aurora Kinase Inhibitor III]: the Zscore_1 is 7.108 and 2.737; the Zscore_2 is 6.482 and −0.8139; the Zscore_AVG is 6.795 and 0.9614.
Take `COc1cc2ncnc(Nc3ccc(NC(=O)c4ccccc4)cc3)c2cc1OC` [Aurora Kinase Inhibitor II]: the Zscore_1 is reported as −0.6024, the Zscore_2 worked out at 2.958 and the Zscore_AVG amounted to 1.178.
The molecule `Nc1nc(Nc2ccc(S(N)(=O)=O)cc2)nn1C(=O)c1c(F)cccc1F` [Aurora Kinase/Cdk Inhibitor] displayed a Zscore_1 of −1.131, a Zscore_2 of −3.054 and a Zscore_AVG of −2.093.
`Cc1ccc(S(=O)(=O)/C=C/C#N)cc1` [BAY 11-7082] came in with a Zscore_1 of −3.877, a Zscore_2 of −4.461 and a Zscore_AVG of −4.169.
As for `Cn1cnc2cc3c(Nc4cccc(Br)c4)ncnc3cc21` [BPIQ-I], the Zscore_1 is listed as 0.6533, the Zscore_2 worked out at 1.97 and the Zscore_AVG is on record as 1.312.
As for `NC(=O)c1cccc(-c2cc(Nc3ccc(OC(F)(F)F)cc3)ncn2)c1` [Bcr-abl Inhibitor], the Zscore_1 came out at 1.402, the Zscore_2 stood at 5.274 and the Zscore_AVG worked out at 3.338.
For `Cl.NCCCn1cc(C2=C(c3c[nH]c4ccccc34)C(=O)NC2=O)c2ccccc21` [Bisindolylmaleimide III, Hydrochloride], the Zscore_1 is −3.661, the Zscore_2 is −5.093 and the Zscore_AVG is listed as −4.377.
In the same order, the values of `O=C1NC(=O)C(c2c[nH]c3ccccc23)=C1c1c[nH]c2ccccc12` [Bisindolylmaleimide IV] are −2.073, −2.336 and −2.205.
Turning to `CN(C)CCCn1cc(C2=C(c3c[nH]c4ccccc34)C(=O)NC2=O)c2ccccc21` [Bisindolylmaleimide I], the Zscore_1 is given as −9.431, the Zscore_2 was −8.32 and the Zscore_AVG is recorded as −8.875.
The matching figures for `CN1C(=O)C(c2c[nH]c3ccccc23)=C(c2c[nH]c3ccccc23)C1=O` [Bisindolylmaleimide V]: −0.6214, 1.109 and 0.2438.
The matching figures for `NC(=O)c1ccc(-c2nc(-c3ccc4c(c3)OCCO4)c(-c3ccccn3)[nH]2)cc1` [Casein Kinase I Inhibitor, D4476]: −1.219, 1.296 and 0.03862.
Regarding `O=C(O)C=Cc1cc(Br)c(Br)c(Br)c1Br` [Casein Kinase II Inhibitor III, TBCA], the Zscore_1 is reported as 1.017, the Zscore_2 turned out to be 1.548 and the Zscore_AVG worked out at 1.282.
Regarding `Brc1c(Br)c(Br)c2n[nH]nc2c1Br` [Casein Kinase II Inhibitor I], the Zscore_1 is listed as 0.6337, the Zscore_2 was determined as 0.5348 and the Zscore_AVG turned out to be 0.5842.
